# Patent US12655160B2, “KRAS G12D inhibitors” (Mirati Therapeutics, Inc., priority 2020, dated 2026)
# Where a name gives a salt, the structure may show the parent alone.
# Target: KRas G12D (Homo sapiens, UniProt P01116, G12D)
# Experiment: KRas G12D Binding Assay (TR-FRET displacement of labeled tracer)
# Design: corresponding to amino acids 1:169, produced at Array BioPharma Inc; biotin (biotinylated)
# Details: TR-FRET displacement of Cy5 labelled tracer, Biotinylated GDP-loaded KRAS G12D (amino acids 1:169), 60 minute incubation at 22° C.
# Procedure: This Example illustrates that exemplary compounds of the present invention bind to KRas G12D and are capable of displacing a labeled tracer ligand occupying the KRas G12D binding site. The ability of a compound to bind to KRAS G12D was measured using a TR-FRET displacement assay. Biotinylated GDP-loaded recombinant human KRAS G12D (corresponding to amino acids 1:169, produced at Array BioPharma Inc.) was incubated with a custom-made Cy5 labelled tracer, europium labelled streptavidin and compound (2% DMSO final) in buffer (50 mM HEPES [pH 7.5], 5 mM MgCl2, 0.005% Tween-20 & 1 mM DTT). After a 60 minute incubation at 22° C., the reaction was measured using a PerkinElmer EnVision multimode plate reader via TR-FRET dual wavelength detection, and the percent of control (POC) calculated using a ratiometric emission factor. […] The POC values were fit to a 4-parameter logistic curve and the IC50 value was determined as the concentration where the curve crosses 50 POC.
# KRas G12D, sequence (P01116 1-169 isoform P01116-2 G12D): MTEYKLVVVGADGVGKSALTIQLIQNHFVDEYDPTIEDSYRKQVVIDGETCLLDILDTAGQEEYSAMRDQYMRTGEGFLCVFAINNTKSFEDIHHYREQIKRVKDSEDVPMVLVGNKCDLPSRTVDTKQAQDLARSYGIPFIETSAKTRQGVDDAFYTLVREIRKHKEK
row,Compound,IC50 [nM]
1,CN(C)C1(CNc2nc(OCCc3nccn3C)nc3c(F)c(-c4cc(O)cc5ccccc45)ncc23)CCC1 [Example 31],857
2,CN1CCC[C@@H]1COc1nc(NCC2(N(C)C)CCC2)c2cnc(-c3cc(O)cc4ccccc34)c(F)c2n1 [Example 32],381
3,"CCc1cccc2cc(O)cc(-c3ncc4c(NCC5(N(C)C)CCC5)nc(OC[C@@]56CCCN5C[C@H](F)C6)nc4c3F)c12 [Example 33, 4-(4-(((1-(dimethylamino)cyclobutyl)methyl)amino)-8-fluoro-2-(((2R,7aS)-2-fluorotetrahydro-1H-pyrrolizin-7a(5H)-yl)methoxy)pyrido[4,3-d]pyrimidin-7-yl)-5-ethylnaphthalen-2-ol dihydrochloride]",0.9
4,"CCc1cccc2cc(O)cc(-c3ncc4c(NCC5(N(C)C)CCCC5)nc(OC[C@@]56CCCN5C[C@H](F)C6)nc4c3F)c12 [Example 34, 4-(4-(((1-(dimethylamino)cyclopentyl)methyl)amino)-8-fluoro-2-(((2R,7aS)-2-fluorotetrahydro-1H-pyrrolizin-7a(5H)-yl)methoxy)pyrido[4,3-d]pyrimidin-7-yl)-5-ethylnaphthalen-2-ol dihydrochloride]",1.1
5,"CCc1c(F)ccc2cccc(-c3ncc4c(NCC5(N(C)C)CCC5)nc(OCC56CCCN5CCC6)nc4c3F)c12 [Example 35, N-((1-(dimethylamino)cyclobutyl)methyl)-7-(8-ethyl-7-fluoronaphthalen-1-yl)-8-fluoro-2-((tetrahydro-1H-pyrrolizin-7a(5H)-yl)methoxy)pyrido[4,3-d]pyrimidin-4-amine bis(2,2,2-trifluoroacetate)]",30.4
6,"CCc1cccc2cc(O)cc(-c3ncc4c(N(C)CC5(N(C)C)CCC5)nc(OC[C@@]56CCCN5C[C@H](F)C6)nc4c3F)c12 [Example 37, 4-(4-(((1-(dimethylamino)cyclobutyl)methyl)(methyl)amino)-8-fluoro-2-(((2R,7aS)-2-fluorotetrahydro-1H-pyrrolizin-7a(5H)-yl)methoxy)pyrido[4,3-d]pyrimidin-7-yl)-5-ethylnaphthalen-2-ol dihydrochloride]",26.1
7,"Oc1cc(-c2ncc3c(NCC4(O)CNC4)nc(OC[C@@]45CCCN4C[C@H](F)C5)nc3c2F)c2ccccc2c1 [Example 38, 3-(((8-fluoro-2-(((2R,7aS)-2-fluorotetrahydro-1H-pyrrolizin-7a(5H)-yl)methoxy)-7-(3-hydroxynaphthalen-1-yl)pyrido[4,3-d]pyrimidin-4-yl)amino)methyl)azetidin-3-ol bis(2,2,2-trifluoroacetate)]",389
8,"Oc1cc(-c2ncc3c(NC[C@]45C[C@H]4CCN5)nc(OC[C@@]45CCCN4C[C@H](F)C5)nc3c2F)c2ccccc2c1 [Example 40, 4-(4-((((1S,5R)-2-azabicyclo[3.1.0]hexan-1-yl)methyl)amino)-8-fluoro-2-(((2R,7aS)-2-fluorotetrahydro-1H-pyrrolizin-7a(5H)-yl)methoxy)pyrido[4,3-d]pyrimidin-7-yl)naphthalen-2-ol bis(2,2,2-trifluoroacetate)]",5150
9,"CN(C)C1(CNc2nc(OC[C@@]34CCCN3C[C@H](F)C4)nc3c(F)c(-c4cc(O)cc5ccccc45)ncc23)CCOCC1 [Example 41, 4-(4-(((4-(dimethylamino)tetrahydro-2H-pyran-4-yl)methyl)amino)-8-fluoro-2-(((2R,7aS)-2-fluorotetrahydro-1H-pyrrolizin-7a(5H)-yl)methoxy)pyrido[4,3-d]pyrimidin-7-yl)naphthalen-2-ol bis(2,2,2-trifluoroacetate)]",684
10,"CN(C)C(C)(C)CNc1nc(OC[C@]23CCCN2C[C@@H](F)C3)nc2c(F)c(-c3cc(O)cc4ccccc34)ncc12 [Example 42, 4-(4-((2-(dimethylamino)-2-methylpropyl)amino)-8-fluoro-2-(((2S,7aR)-2-fluorotetrahydro-1H-pyrrolizin-7a(5H)-yl)methoxy)pyrido[4,3-d]pyrimidin-7-yl)naphthalen-2-ol bis(2,2,2-trifluoroacetate)]",211
11,"CC(C)c1c(Cl)cccc1-c1ncc2c(NCC3(N(C)C)CCC3)nc(OCC34CCCN3CCC4)nc2c1F [Example 47, 7-(3-chloro-2-isopropylphenyl)-N-((1-(dimethylamino)cyclobutyl)methyl)-8-fluoro-2-((tetrahydro-1H-pyrrolizin-7a(5H)-yl)methoxy)pyrido[4,3-d]pyrimidin-4-amine]",513
12,"CC(C)c1c(Cl)cccc1-c1ncc2c(NCC3(N(C)C)CCC3)nc(OC[C@@]34CCCN3C[C@H](F)C4)nc2c1F [Example 48, 7-(3-chloro-2-isopropylphenyl)-N-((1-(dimethylamino)cyclobutyl)methyl)-8-fluoro-2-(((2R,7aS)-2-fluorotetrahydro-1H-pyrrolizin-7a(5H)-yl)methoxy)pyrido[4,3-d]pyrimidin-4-amine]",1080
13,"CN(C)C1(CNc2nc(OC[C@]34CCCN3[C@@H](COC(=O)N3CCCC3)CC4)nc3c(F)c(-c4cccc5cccc(Cl)c45)ncc23)CCC1 [Example 49, ((3R,7aR)-7a-(((7-(8-chloronaphthalen-1-yl)-4-(((1-(dimethylamino)cyclobutyl)methyl)amino)-8-fluoropyrido[4,3-d]pyrimidin-2-yl)oxy)methyl)hexahydro-1H-pyrrolizin-3-yl)methyl pyrrolidine-1-carboxylate]",232
14,"CN(C)C1(CNc2nc(OCC34CCCN3CCC4)nc3c(F)c(-c4cccc5cccc(F)c45)ncc23)CCOCC1 [Example 53, N-((4-(dimethylamino)tetrahydro-2H-pyran-4-yl)methyl)-8-fluoro-7-(8-fluoronaphthalen-1-yl)-2-((hexahydro-1H-pyrrolizin-7a-yl)methoxy)pyrido[4,3-d]pyrimidin-4-amine]",7160
15,"CN(C)C(C)(C)CNc1nc(OCC23CCCN2CCC3)nc2c(F)c(-c3cccc4cccc(Cl)c34)ncc12 [Example 55, N^1-(7-(8-chloronaphthalen-1-yl)-8-fluoro-2-((hexahydro-1H-pyrrolizin-7a-yl)methoxy)pyrido[4,3-d]pyrimidin-4-yl)-N^2,N^2,2-trimethylpropane-1,2-diamine]",938
16,"CCc1c(F)ccc2cc(O)cc(-c3ncc4c(NCC5(N(C)C)CCC5)nc(OC[C@@]56CCCN5C[C@H](F)C6)nc4c3F)c12 [Example 57, 4-(4-(((1-(dimethylamino)cyclobutyl)methyl)amino)-8-fluoro-2-(((2R,7aS)-2-fluorohexahydro-1H-pyrrolizin-7a-yl)methoxy)pyrido[4,3-d]pyrimidin-7-yl)-5-ethyl-6-fluoronaphthalen-2-ol]",1.1
17,"CN(CC1(N(C)C)CCC1)c1nc(OCC23CCCN2CCC3)nc2c(F)c(-c3cccc4cccc(F)c34)ncc12 [Example 58, N-((1-(dimethylamino)cyclobutyl)methyl)-8-fluoro-7-(8-fluoronaphthalen-1-yl)-2-((hexahydro-1H-pyrrolizin-7a-yl)methoxy)-N-methylpyrido[4,3-d]pyrimidin-4-amine]",9090
18,"CNC1(CNc2nc(OCC34CCCN3CCC4)nc3c(F)c(-c4cccc5cccc(F)c45)ncc23)CCC1 [Example 59, 8-fluoro-7-(8-fluoronaphthalen-1-yl)-2-((hexahydro-1H-pyrrolizin-7a-yl)methoxy)-N-((1-(methylamino)cyclobutyl)methyl)pyrido[4,3-d]pyrimidin-4-amine]",1030
19,"NC1(CNc2nc(OCC34CCCN3CCC4)nc3c(F)c(-c4cccc5cccc(F)c45)ncc23)CCC1 [Example 60, N-((1-aminocyclobutyl)methyl)-8-fluoro-7-(8-fluoronaphthalen-1-yl)-2-((hexahydro-1H-pyrrolizin-7a-yl)methoxy)pyrido[4,3-d]pyrimidin-4-amine]",2120
20,"CN(C)C1(CNc2nc(OCC34CCCN3CCC4)nc3c(F)c(-c4cccc5cccc(F)c45)ncc23)CCCC1 [Example 61, N-((1-(dimethylamino)cyclopentyl)methyl)-8-fluoro-7-(8-fluoronaphthalen-1-yl)-2-((hexahydro-1H-pyrrolizin-7a-yl)methoxy)pyrido[4,3-d]pyrimidin-4-amine]",480
21,"NC1CC(Nc2nc(OCC34CCCN3CCC4)nc3c(F)c(-c4cccc5cccc(F)c45)ncc23)C12CCC2 (stereo not drawn) [Example 62, N^1-(8-fluoro-7-(8-fluoronaphthalen-1-yl)-2-((hexahydro-1H-pyrrolizin-7a-yl)methoxy)pyrido[4,3-d]pyrimidin-4-yl)spiro[3.3]heptane-1,3-diamine]",203
